What is called CC50 is the concentration giving 50% cytotoxicity.

Series [1] can be described thus: cytotoxicity on macrophages (Alamar blue) and selectivity index. The format is cell-based, mouse. The note with it: mouse, J774A.1 macrophage cells; for CC50 at 96 h: cytotoxicity on macrophage cell J774A.1 at 96 h; for CC50 at 6 h: cytotoxicity on macrophage cell J774A.1 at 6 h. The protocol: (§1) The determination of the half maximal cytotoxicity concentration (CC50) of the compounds T-006, T-011, T-018, T-022, T-069, T-085, T-088, and T-089 was carried out on the mouse macrophage cell line J774A.1 (ATCC TIB-67). Briefly, cell monolayers were prepared in 96-well plates with 10,000 cells per well in Ham’s F-12 medium supplemented with 10% Fetal bovine serum (FBS, By products, Guadalajara, Mexico) and antibiotics (penicillin and gentamicin). Five concentrations from 100 to 0.5 μg/mL of each of the compounds were tested. The cells were incubated for a period of 6 h (^−) or 96 h (^+). Before completing this period, 20 μL of Alamar blue solution was added to each well, quantifying the relative fluorescence units in a fluorometer (Fluoroskan Ascent FL, Labsystems). The percentage of cytotoxicity at each concentration was determined by comparing the values against the control of cells without treatment. The CC50 was determined with the Probit regression analysis (MedCalc Statistical Software version 18.5, Ostend, Belgium). Selectivity index was calculated as the ratio of the CC50 on the macrophage cell line J774A.1 and the MIC value against M. tuberculosis strain H37Rv.

Series [2] deals with mouse macrophage cell line J774A.1. Described as above. The format is cell-based. The note with it: ratio of CC50 on J774A.1 and MIC against M. tuberculosis H37Rv. On the procedure:
as §1

The next series has as its system M. fortuitum. Kind of series: MIC on nontuberculous Mycobacterium clinical isolate. The format is cell-based. The conditions noted are these: Mycolicibacterium fortuitum.
A further series has as its system M. smegmatis. The series is described as above. It is filed as cell-based. The note with it: Mycolicibacterium smegmatis.
The subject of the next series is M. avium. The series is described as above. The format is cell-based.
In a further series the test system is M. abscessus. The description is as above. It is filed as cell-based. The note with it: Mycobacteroides abscessus.
For a further series, the system named is M. tb H37Rv. The series can be described thus: MIC on M. tb H37Rv (Table 4 panel). The format is cell-based. The conditions noted are these: Mycobacterium tuberculosis.
A further series concerns M. chelonae. The series can be described thus: MIC on nontuberculous Mycobacterium clinical isolate. The format is cell-based. The conditions noted are these: Mycobacteroides chelonae.
Series [3] relates to nonreplicating persistent (NRP) M. tuberculosis strain. Kind of series: microbe, parasite or virus in culture. It is filed as cell-based, Mycobacterium tuberculosis. The note with it: Mycobacterium tuberculosis; nonreplicating persistent strain; read-out: LORA MIC.
Series [4] deals with Mycobacterium tuberculosis strain H37Rv. Kind of series: microplate Alamar blue assay (MABA). It is filed as cell-based. The conditions noted are these: Mycobacterium tuberculosis, H37RV, M. tuberculosis H37Rv; lowest concentration effecting 90% inhibition. On the technique in general: Resazurin is reduced to fluorescent resorufin, in cell work by metabolically active cells.
Series [5] has as its target M. tuberculosis gyrase (GyrA and Gyr B subunits) (Mycobacterium tuberculosis, UniProt P9WG45+P9WG47). The series can be described thus: M. tuberculosis gyrase supercoiling assay. It is filed as biochemical. The note with it: at 50 μM. On the procedure:
The activity of the enzyme was determined prior to the testing of the quinoxaline 1,4-di-N-oxide derivatives and 1 U was defined as the amount of enzyme required to just fully supercoil the substrate under test conditions. Compounds were tested at 50 μM. Final DMSO concentration in the assays was 1% (v/v).
1 U of M. tuberculosis gyrase (GyrA and Gyr B subunits) (final concentration in assay 50 nM) was incubated with 0.5 μg of relaxed pBR322 DNA in a 30 μL reaction at 37 °C for 30 min under the following conditions: 50 mM HEPES. KOH (pH 7.9), 6 mM magnesium acetate, 4 mM DTT, 1 mM ATP, 100 mM potassium glutamate, 2 mM spermidine and 0.05 mg/mL albumin.
Each reaction was stopped by the addition of 30 μL chloroform/iso-amyl alcohol (26:1) and 20 μL Stop Dye (40% sucrose, 100 mM Tris.HCl (pH 7.5), 10 mM EDTA, 0.5 μg/mL bromophenol blue), before being loaded on a 1.0% TAE (Tris.acetate […], EDTA […]) gel run at 80 V for 2 h.
Bands were visualized by ethidium staining for 10 min, destained for 10 min in water, analyzed by gel documentation equipment (Syngene, Cambridge, UK), and quantified using Syngene software (Genetools version 4.00 (1997–1998), Syngene, A division of Synoptics Corp, Cambridge, UK).
Raw gel data (fluorescent band volumes) collected from Syngene’s GeneTools gel analysis software were converted to a % of the 100% control (the supercoiled enzyme plus DMSO control DNA band). These were analyzed using SigmaPlot Version 13.0 (Systat Software Inc., London, UK; 2016).

The nature of series [6]: stability in human plasma by UPLC-MS. It is filed as in vitro ADME. The note with it: 37 °C, 24 h. On the procedure:
Compounds T-018 and T-069 were selected to analyze their stability in human plasma. A total of 1 mg of each of the two compounds was dissolved in 1 mL of dichlorometane. Then, 0.1 mL was added to 0.9 mL of 0.1% formic acid in acetonitrile for analysis by UPLC with an ACQUITY QDa mass detector from Waters (Milford, MA, USA) under the following conditions: column: ACQUITY UPLC® BEH C18 1.7 µm, 2.1 × 100 mm; mobile phase: 0.1% formic acid/acetonitrile; run time: 5 min; flow rate: 0.3 mL/min; injection volume: 0.5 µL; temperature: 40 °C. After that, 3 mL of human plasma was obtained from a volunteer under medical supervision and following the standard procedures. Then, 1 mg of T-018 and T-069 were dissolved with DMSO 2% and added to 1 mL of human plasma. Samples were incubated at 37 °C for 12 and 24 h. T-018 and T-069 were obtained by liquid extraction with dichloromethane (10 mL) three times and the solvent was eliminated for vacuum pressure. After that, 1 mL of dichlorometane was added and 0.1 mL was added to 0.9 mL of 0.1% formic acid in acetonitrile and analyzed by UPLC-MS. Percentage of degradation was calculated considering the area under the curve of each peak/the area under the curve of all peaks × 100% at 24 h only.

Converted amounts (≈) assume the structure as drawn.

Chain of M. tuberculosis gyrase (GyrA and Gyr B subunits) (P9WG45 whole entry): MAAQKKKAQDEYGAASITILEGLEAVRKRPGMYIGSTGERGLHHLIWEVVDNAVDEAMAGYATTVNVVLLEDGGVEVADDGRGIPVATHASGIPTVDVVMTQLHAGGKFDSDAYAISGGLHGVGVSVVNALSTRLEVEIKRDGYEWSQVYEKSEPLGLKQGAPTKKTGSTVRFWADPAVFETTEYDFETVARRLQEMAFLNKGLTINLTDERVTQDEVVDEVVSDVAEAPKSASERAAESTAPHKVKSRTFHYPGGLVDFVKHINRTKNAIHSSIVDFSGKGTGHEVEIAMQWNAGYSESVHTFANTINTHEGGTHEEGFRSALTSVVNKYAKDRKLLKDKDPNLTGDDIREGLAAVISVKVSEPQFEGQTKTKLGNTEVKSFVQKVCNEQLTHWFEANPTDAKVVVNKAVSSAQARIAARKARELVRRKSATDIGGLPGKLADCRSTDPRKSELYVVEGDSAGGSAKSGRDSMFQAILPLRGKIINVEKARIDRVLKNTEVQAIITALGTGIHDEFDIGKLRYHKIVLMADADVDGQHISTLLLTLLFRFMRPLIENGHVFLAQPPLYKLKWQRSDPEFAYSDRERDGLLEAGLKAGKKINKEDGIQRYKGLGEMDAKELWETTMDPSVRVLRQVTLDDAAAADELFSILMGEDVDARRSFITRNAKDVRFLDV
Chain of M. tuberculosis gyrase (GyrA and Gyr B subunits) (P9WG47 whole entry): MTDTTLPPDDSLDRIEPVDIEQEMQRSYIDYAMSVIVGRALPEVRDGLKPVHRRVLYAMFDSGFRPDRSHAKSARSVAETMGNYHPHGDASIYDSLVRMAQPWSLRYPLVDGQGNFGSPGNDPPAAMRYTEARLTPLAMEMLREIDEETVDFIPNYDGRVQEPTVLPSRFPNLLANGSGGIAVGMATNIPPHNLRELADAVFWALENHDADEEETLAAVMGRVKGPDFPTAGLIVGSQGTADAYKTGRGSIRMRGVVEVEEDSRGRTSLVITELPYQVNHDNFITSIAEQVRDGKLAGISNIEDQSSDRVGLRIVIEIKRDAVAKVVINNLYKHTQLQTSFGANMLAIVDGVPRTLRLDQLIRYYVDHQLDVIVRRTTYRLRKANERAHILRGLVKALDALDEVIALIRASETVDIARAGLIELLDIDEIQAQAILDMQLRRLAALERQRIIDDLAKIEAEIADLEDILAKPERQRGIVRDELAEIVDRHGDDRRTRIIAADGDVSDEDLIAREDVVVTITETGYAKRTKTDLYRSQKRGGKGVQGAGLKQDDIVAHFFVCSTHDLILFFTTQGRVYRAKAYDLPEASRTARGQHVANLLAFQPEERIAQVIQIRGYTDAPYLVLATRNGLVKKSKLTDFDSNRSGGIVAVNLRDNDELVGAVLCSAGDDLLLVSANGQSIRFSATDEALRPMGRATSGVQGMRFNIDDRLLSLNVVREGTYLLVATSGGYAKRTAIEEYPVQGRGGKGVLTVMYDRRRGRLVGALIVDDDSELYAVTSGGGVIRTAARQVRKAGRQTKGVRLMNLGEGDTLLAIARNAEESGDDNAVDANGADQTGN

As for `CCOC(=O)c1ccc2c(c1)[n+]([O-])c(C(C)=O)c(C(F)(F)F)[n+]2[O-]` [Compound T-006], the CC50 at 96 h in [1] is greater than 100 µg/mL. Further, the “SI (selectivity index)” value in series [2] is given as greater than 50. The MIC against M. fortuitum is greater than 10 µg/mL; with M. smegmatis it was greater than 10 µg/mL; in the series on M. avium it was 2.5 µg/mL (≈ 7.26 µM); against M. abscessus, greater than 10 µg/mL; with M. tb H37Rv, 2 µg/mL (≈ 5.81 µM); with M. chelonae it was greater than 10 µg/mL. Moreover, the MIC in series [3] was determined as 0.42 µg/mL (≈ 1.22 µM); in series [4] it was 0.29 µg/mL (≈ 0.842 µM).

`CCOC(=O)c1ccc2c(c1)[n+]([O-])c(C(=O)c1cccs1)c(C(F)(F)F)[n+]2[O-]` [Compound T-011] registered a CC50 at 6 h in series [1] of 1.67 µg/mL (≈ 4.05 µM). For the same compound, the “SI (selectivity index)” value in series [2] amounted to 3.34. Besides, the MIC with M. fortuitum was 2.5 µg/mL (≈ 6.06 µM); against M. smegmatis it was 0.62 µg/mL (≈ 1.5 µM); in the series on M. avium, less than 0.31 µg/mL; with M. abscessus, greater than 10 µg/mL; against M. tb H37Rv, 0.5 µg/mL (≈ 1.21 µM); in the series with M. chelonae, greater than 10 µg/mL. Besides, the MIC in [3] was 0.21 µg/mL (≈ 0.509 µM); in series [4], no more than 0.15 µg/mL. Further, the “inhibitory effect on M. tuberculosis gyrase supercoiling” value (shortened to “inhibitory effect”) in series [5] was “none of the compounds showed an inhibitory effect”.

In series [1], `COC(=O)c1ccc2c(c1)[n+]([O-])c(C(=O)c1ccccc1)c(C(F)(F)F)[n+]2[O-]` [Compound T-018] showed a CC50 at 6 h of 35.4 µg/mL (≈ 90.2 µM). Moreover, in series [2], the “SI (selectivity index)” value is given as 35.37. The MIC is greater than 10 µg/mL against M. fortuitum; 2.5 µg/mL (≈ 6.37 µM) against M. smegmatis; 2.5 µg/mL (≈ 6.37 µM) against M. avium; 5 µg/mL (≈ 12.7 µM) against M. abscessus; 1 µg/mL (≈ 2.55 µM) in the series on M. tb H37Rv; greater than 10 µg/mL against M. chelonae. Besides, the results for the MIC in series [3] and in series [4] were 0.34 µg/mL (≈ 0.867 µM) and no more than 0.15 µg/mL, respectively. In series [5], the “inhibitory effect” value was “none of the compounds showed an inhibitory effect”.

`COC(=O)c1ccc2c(c1)[n+]([O-])c(C(=O)OC)c(C)[n+]2[O-]` [Compound T-022]: the cytotoxic concentration (CC50) at 96 h in series [1] was 86.2 µg/mL (≈ 295 µM). Further, the MIC in the series with M. fortuitum was 2.5 µg/mL (≈ 8.55 µM); with M. smegmatis, 0.62 µg/mL (≈ 2.12 µM); with M. avium it was 2.5 µg/mL (≈ 8.55 µM); against M. abscessus, greater than 10 µg/mL; in the series with M. tb H37Rv, 0.5 µg/mL (≈ 1.71 µM); against M. chelonae, 2.5 µg/mL (≈ 8.55 µM). Moreover, the MIC came to 0.56 µg/mL (≈ 1.92 µM) in series [3] and 0.29 µg/mL (≈ 0.992 µM) in series [4].

`CC(C)OC(=O)c1ccc2c(c1)[n+]([O-])c(C(=O)c1cccs1)c(C(F)(F)F)[n+]2[O-]` [Compound T-069] returned a half-maximal cytotoxic concentration (CC50) at 6 h in [1] of 41.3 µg/mL (≈ 96.8 µM). In addition, the “SI (selectivity index)” value in [2] is reported as 41.26. Also, the MIC is greater than 10 µg/mL with M. fortuitum; greater than 10 µg/mL in the series with M. smegmatis; 5 µg/mL (≈ 11.7 µM) with M. avium; greater than 10 µg/mL in the series with M. abscessus; 1 µg/mL (≈ 2.35 µM) with M. tb H37Rv; 2.5 µg/mL (≈ 5.86 µM) in the series with M. chelonae. Further, the MIC in [3] is 0.23 µg/mL (≈ 0.539 µM); in series [4] it was no more than 0.15 µg/mL. For the same compound, the “inhibitory effect” value in series [5] was “none of the compounds showed an inhibitory effect”. Besides, the “stability in human plasma” value in [6] is “high stability”.

As for `CC(C)OC(=O)c1ccc2c(c1)[n+]([O-])c(C(=O)C(C)C)c(C(F)(F)F)[n+]2[O-]` [Compound T-085], the midpoint of cytotoxicity in series [1], the CC50 at 6 h, lay at 45.4 µg/mL (≈ 118 µM). Further, in series [2], the “SI (selectivity index)” value is 45.42. Also, the MIC is 2.5 µg/mL (≈ 6.47 µM) against M. fortuitum; 1.25 µg/mL (≈ 3.24 µM) against M. smegmatis; 0.62 µg/mL (≈ 1.6 µM) in the series on M. avium; 2.5 µg/mL (≈ 6.47 µM) against M. abscessus; 1 µg/mL (≈ 2.59 µM) in the series with M. tb H37Rv; 5 µg/mL (≈ 12.9 µM) in the series with M. chelonae. The MIC in series [3] is 0.13 µg/mL (≈ 0.337 µM); in series [4], no more than 0.15 µg/mL.

In series [1], `CCCOC(=O)c1ccc2c(c1)[n+]([O-])c(C(=O)OC)c(C)[n+]2[O-]` [Compound T-088] showed a CC50 at 96 h of 36.5 µg/mL (≈ 114 µM). Further, the “SI (selectivity index)” value in series [2] is listed as 73.02. Moreover, the MIC against M. fortuitum was greater than 10 µg/mL; in the series on M. smegmatis, 2.5 µg/mL (≈ 7.81 µM); in the series with M. avium, greater than 10 µg/mL; in the series with M. abscessus it was greater than 10 µg/mL; against M. tb H37Rv it was 0.5 µg/mL (≈ 1.56 µM); in the series on M. chelonae, greater than 10 µg/mL. Moreover, the MIC in series [3] is 0.27 µg/mL (≈ 0.843 µM); in series [4], no more than 0.15 µg/mL.

Take `CCCOC(=O)c1ccc2c(c1)[n+]([O-])c(C(=O)c1cccs1)c(C(F)(F)F)[n+]2[O-]` [Compound T-089]: in [1], the cytotoxic concentration (CC50) at 6 h worked out at 24.3 µg/mL (≈ 56.9 µM). For the same compound, the “SI (selectivity index)” value in series [2] worked out at 48.54. For the same compound, the MIC in the series on M. fortuitum is greater than 10 µg/mL; in the series with M. smegmatis, greater than 10 µg/mL; against M. avium it was 0.62 µg/mL (≈ 1.45 µM); against M. abscessus, greater than 10 µg/mL; in the series with M. tb H37Rv it was 0.5 µg/mL (≈ 1.17 µM); in the series with M. chelonae, greater than 10 µg/mL. The MIC in series [3] is 0.15 µg/mL (≈ 0.352 µM); in series [4], 0.12 µg/mL (≈ 0.281 µM).

As to `CO[C@H]1/C=C/O[C@@]2(C)Oc3c(C)c(O)c4c(O)c(c(/C=N/N5CCN(C)CC5)c(O)c4c3C2=O)NC(=O)/C(C)=C\C=C\[C@H](C)[C@H](O)[C@@H](C)[C@@H](O)[C@@H](C)[C@H](OC(C)=O)[C@@H]1C` [RMP, rifampicin, reference compound], the MIC is less than 0.06 µg/mL with M. tb H37Rv, 0.89 µg/mL (≈ 1.08 µM) in series [3] and 0.03 µg/mL (≈ 0.0365 µM) in series [4].

The values are drawn from article PMC6099706, “Anti-Mycobacterium tuberculosis Activity of Esters of Quinoxaline 1,4-Di-N-Oxide” (Molecules : A Journal of Synthetic Chemistry and Natural …, 2018).
